# Key:
# Assay type in all cases: biochemical
# HSD17B13 = HSD17B13 (Homo sapiens (Human), UniProt Q7Z5P4); assay: HSD17B13 enzymatic inhibition assay (150 nM or 50 nM HSD17B13); settings: 50 nM HSD17B13; read-out: Inhibition of 50 nM of HSD17B13 IC50
# HSD17B1 = HSD17B1 (Homo sapiens (Human), UniProt P14061); assay: HSD17B1 enzymatic blocking assay; settings: 25 μM Estradiol, 500 μM NAD; read-out: Inhibition of HSD17B1 IC50
# Procedure: To screen compounds of the disclosure for their ability to block HSD17B1 function, an enzymatic blocking assay was performed. For the assay, HSD17B1 activity was measured by detecting NADH formation from oxidation of Estradiol using a NADH Glo luminescence assay (Promega, #Cat. No. G9062). […] Compounds were incubated with the enzyme for 30 minutes at room temperature. […] DMSO at a concentration of 0.5% was used as a negative control and a ‘no substrate’ control was used a positive control in the assay. Detection reagent was then added as per manufacturer's instructions, and the plate was subsequently incubated in the dark for 1 hour at room temperature, NADH generated was detected in the luminescence mode on the Envision Perkin Elmer plate reader. The IC50 values were determined using Dotmatics analysis software.
# HSD17B2 = HSD17B2 (Homo sapiens (Human), UniProt P37059); assay: HSD17B2 enzymatic blocking assay; settings: 1.8 μM Estradiol, 650 μM NAD; read-out: Inhibition of HSD17B2 IC50
# Procedure: To screen compounds of the disclosure for their ability to block HSD17B2 function, an enzymatic blocking assay was performed. For the assay, HSD17B2 activity was measured by detecting NADH formation from oxidation of Estradiol using a NADH Glo luminescence assay (Promega, #Cat. No. G9062). Compounds of the disclosure were evaluated in a dose titration assay where the compounds were titrated at 10-point dose curve using an Echo-555 liquid handling dispenser. HSD17B2 (SEQ ID NO: 3, expressed in mammalian cells) was added at a final concentration of 2 ng/μL in a buffer containing 50 mM Tris-HCl, pH 7.5, Pluronic F-127 0.05%, Tween20 0.01%, BSA 0.01% into a low volume white 384-well assay plate. Compounds were incubated with the enzyme for 15 min at 20° C. The assay reaction was then initiated by addition of 1.8 μM Estradiol substrate (Sigma, catalog #E2758-250MG, CAS: 50-28-2) and 650 μM NAD co-factor, and the reaction mixture was incubated for 45 min at 20° C. DMSO at a concentration of 0.5% was used as a negative control and a ‘no substrate’ control was used a positive control in the assay. Detection reagent was then added as per manufacturer's instructions, and the plate was subsequently incubated in the dark for 1 hour at room temperature, NADH generated was detected in the luminescence mode on the Envision Perkin Elmer plate reader. The IC50 values were determined using Dotmatics analysis software.
# Chain of HSD17B2 (P37059 other isoform, or with tags, fused parts or gaps): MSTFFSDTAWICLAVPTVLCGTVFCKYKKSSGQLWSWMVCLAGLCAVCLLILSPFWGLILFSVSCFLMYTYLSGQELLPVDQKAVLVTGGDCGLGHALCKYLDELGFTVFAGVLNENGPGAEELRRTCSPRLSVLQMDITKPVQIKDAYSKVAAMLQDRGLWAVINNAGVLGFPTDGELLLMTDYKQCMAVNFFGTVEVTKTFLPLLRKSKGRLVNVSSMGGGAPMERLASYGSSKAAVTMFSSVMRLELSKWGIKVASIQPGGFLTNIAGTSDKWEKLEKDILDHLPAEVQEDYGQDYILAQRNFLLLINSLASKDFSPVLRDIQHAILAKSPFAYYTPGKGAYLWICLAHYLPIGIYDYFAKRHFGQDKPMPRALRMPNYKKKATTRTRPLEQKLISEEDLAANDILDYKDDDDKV
# Chain of HSD17B13 (Q7Z5P4 other isoform, or with tags, fused parts or gaps): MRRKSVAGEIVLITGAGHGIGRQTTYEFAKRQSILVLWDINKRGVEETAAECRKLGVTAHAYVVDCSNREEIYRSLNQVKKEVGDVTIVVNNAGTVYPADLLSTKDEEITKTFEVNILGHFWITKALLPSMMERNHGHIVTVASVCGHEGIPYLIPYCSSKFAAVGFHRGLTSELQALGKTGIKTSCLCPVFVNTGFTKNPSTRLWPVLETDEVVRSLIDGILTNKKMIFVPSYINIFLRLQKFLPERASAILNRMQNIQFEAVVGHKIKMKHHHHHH
# Chain of HSD17B1 (P14061 other isoform, or with tags, fused parts or gaps): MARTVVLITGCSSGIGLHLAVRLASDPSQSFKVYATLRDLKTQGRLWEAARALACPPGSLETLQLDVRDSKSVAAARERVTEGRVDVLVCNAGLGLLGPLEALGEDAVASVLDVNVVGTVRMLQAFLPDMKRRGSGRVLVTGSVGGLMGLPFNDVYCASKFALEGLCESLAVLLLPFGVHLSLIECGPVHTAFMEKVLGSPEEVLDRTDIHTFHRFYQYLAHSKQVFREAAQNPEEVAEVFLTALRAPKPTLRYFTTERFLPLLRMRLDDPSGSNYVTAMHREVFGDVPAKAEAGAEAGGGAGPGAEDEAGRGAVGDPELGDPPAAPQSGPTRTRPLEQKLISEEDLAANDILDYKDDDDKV
Structure (SMILES),IC50 (HSD17B13) [nM],IC50 (HSD17B1) [µM],IC50 (HSD17B2) [µM]
"CCCc1cc(C(=O)NC2c3ccc(Cl)cc3Oc3cc(Cl)ccc32)c(=O)[nH]c1C(F)(F)F [Compound 178, N-(3,6-dichloro-9H-xanthen-9-yl)-2-oxo-5-propyl-6-(trifluoromethyl)-1,2-dihydropyridine-3-carboxamide]",60,28.7,64
"COc1ccc2c(c1)Sc1cnccc1C2NC(=O)c1ccc(C(F)(F)F)[nH]c1=O (stereo not drawn) [Compound 323, N-(8-methoxy-5H-thiochromeno[2,3-c]pyridin-5-yl)-2-oxo-6-(trifluoromethyl)-1,2-dihydropyridine-3-carboxamide]",220,> 30,35.5
"Cc1ccc2c(c1)Oc1cc(C)ccc1C2NC(=O)c1cc(C2=CCCCC2)c(C(F)(F)F)[nH]c1=O [Compound 183, 5-(cyclohex-1-en-1-yl)-N-(3,6-dimethyl-9H-xanthen-9-yl)-2-oxo-6-(trifluoromethyl)-1,2-dihydropyridine-3-carboxamide]",30,4.55,9.61
"CCC1CCC(NC(=O)c2ccc(C(F)(F)F)[nH]c2=O)c2ccc(C)cc21 (stereo not drawn) [Compound 300, N-(4-ethyl-6-methyl-1,2,3,4-tetrahydronaphthalen-1-yl)-2-oxo-6-(trifluoromethyl)-1,2-dihydropyridine-3-carboxamide]",140,18,10.2
"COc1ccc2c(c1)Sc1cc(OC)ccc1C2NC(=O)c1ccc(C(F)F)[nH]c1=O [Compound 274, 6-(difluoromethyl)-N-(3,6-dimethoxy-9H-thioxanthen-9-yl)-2-oxo-1,2-dihydropyridine-3-carboxamide]",270,8.39,9.16
"CNc1cccc(C(NC(=O)c2ccc(C(F)(F)F)[nH]c2=O)c2ccc(C)cc2)c1 (stereo not drawn) [Compound 419, N-((3-(methylamino)phenyl)(p-tolyl)methyl)-2-oxo-6-(trifluoromethyl)-1,2-dihydropyridine-3-carboxamide]",630,> 30,> 100
"O=C(NC1c2ccccc2Oc2ccc(C3CC3)cc21)c1ccc(C(F)(F)F)[nH]c1=O (stereo not drawn) [Compound 161, N-(2-cyclopropyl-9H-xanthen-9-yl)-2-oxo-6-(trifluoromethyl)-1,2-dihydropyridine-3-carboxamide]",270,9.16,8.22
"CCC1CC(NC(=O)c2ccc(C(F)(F)F)[nH]c2=O)c2ccc(C)cc2O1 (stereo not drawn) [Compound 407, N-(2-ethyl-7-methylchroman-4-yl)-2-oxo-6-(trifluoromethyl)-1,2-dihydropyridine-3-carboxamide]",160,12.5,69.2
"Cc1ccc2c(c1)Oc1cc(C)ccc1C2NC(=O)c1cc(-c2ncccn2)c(C(F)(F)F)[nH]c1=O [Compound 509, N-(3,6-dimethyl-9H-xanthen-9-yl)-2-oxo-5-(pyrimidin-2-yl)-6-(trifluoromethyl)-1,2-dihydropyridine-3-carboxamide]",10,3.48,11.9
"CSc1cccc(C(NC(=O)c2ccc(C(F)(F)F)[nH]c2=O)c2ccc(C)cc2)c1 (stereo not drawn) [Compound 445, N-((3-(methylthio)phenyl)(p-tolyl)methyl)-2-oxo-6-(trifluoromethyl)-1,2-dihydropyridine-3-carboxamide]",230,14.8,42.9
"Cc1ccc2c(c1)Oc1cc(C)ccc1C2NC(=O)c1cc(-c2ccccc2)c(C(F)(F)F)[nH]c1=O [Compound 177, N-(3,6-dimethyl-9H-xanthen-9-yl)-2-oxo-5-phenyl-6-(trifluoromethyl)-1,2-dihydropyridine-3-carboxamide]",40,4.21,14.6
"Cc1ccc2c(c1)Oc1cc(C)ccc1C2NC(=O)c1cc(Cc2ccccc2)c(C(F)(F)F)[nH]c1=O [Compound 500, 5-benzyl-N-(3,6-dimethyl-9H-xanthen-9-yl)-2-oxo-6-(trifluoromethyl)-1,2-dihydropyridine-3-carboxamide]",20,2.67,14.8
"Cc1ccc2c(c1)Oc1cc(C)ccc1C2NC(=O)c1cc(N2CCCCC2)c(C(F)(F)F)[nH]c1=O [Compound 436, N-(3,6-dimethyl-9H-xanthen-9-yl)-2-oxo-5-(piperidin-1-yl)-6-(trifluoromethyl)-1,2-dihydropyridine-3-carboxamide]",90,6.19,27.3
"Cc1ccc2c(c1)Oc1cc(C)ccc1C2NC(=O)c1cc(-c2cnccn2)c(C(F)(F)F)[nH]c1=O [Compound 508, N-(3,6-dimethyl-9H-xanthen-9-yl)-2-oxo-5-(pyrazin-2-yl)-6-(trifluoromethyl)-1,2-dihydropyridine-3-carboxamide]",20,3.3,45.8
"Cc1ccc2c(c1)Oc1cc(C)ccc1C2NC(=O)c1cc(-c2cncnc2)c(C(F)(F)F)[nH]c1=O [Compound 499, N-(3,6-dimethyl-9H-xanthen-9-yl)-2-oxo-5-(pyrimidin-5-yl)-6-(trifluoromethyl)-1,2-dihydropyridine-3-carboxamide]",30,4.86,9.8
"Cc1ccc2c(c1)Oc1cc(C)ccc1C2NC(=O)c1cnc(C(F)(F)F)[nH]c1=O [Compound 194, N-(3,6-dimethyl-9H-xanthen-9-yl)-6-oxo-2-(trifluoromethyl)-1,6-dihydropyrimidine-5-carboxamide]",90,19.2,17.4
"N#Cc1ccc(C(NC(=O)c2ccc(C(F)(F)F)[nH]c2=O)c2ccccc2)cc1 (stereo not drawn) [Compound 12A, N-((4-cyanophenyl)(phenyl)methyl)-2-oxo-6-(trifluoromethyl)-1,2-dihydropyridine-3-carboxamide]",560,> 30,23.7
"COc1ccc2c(c1)Sc1cccnc1C2NC(=O)c1ccc(C(F)(F)F)[nH]c1=O (stereo not drawn) [Compound 321, N-(7-methoxy-10H-thiochromeno[3,2-b]pyridin-10-yl)-2-oxo-6-(trifluoromethyl)-1,2-dihydropyridine-3-carboxamide]",220,> 30,8.32
"Cc1ccc2c(c1)Oc1cnccc1C2NC(=O)c1ccc(C(F)(F)F)[nH]c1=O (stereo not drawn) [Compound 328, N-(8-methyl-5H-chromeno[2,3-c]pyridin-5-yl)-2-oxo-6-(trifluoromethyl)-1,2-dihydropyridine-3-carboxamide]",110,4.16,> 100
"Cc1ccc2c(c1)Oc1cc(C)ccc1C2NC(=O)c1cc(CCc2ccccc2)c(C(F)(F)F)[nH]c1=O [Compound 520, N-(3,6-dimethyl-9H-xanthen-9-yl)-2-oxo-5-phenethyl-6-(trifluoromethyl)-1,2-dihydropyridine-3-carboxamide]",20,13.7,25.3
"CCC1Oc2ccc(C)cc2C1NC(=O)c1ccc(C(F)(F)F)[nH]c1=O (stereo not drawn) [Compound 355, N-(2-ethyl-5-methyl-2,3-dihydrobenzofuran-3-yl)-2-oxo-6-(trifluoromethyl)-1,2-dihydropyridine-3-carboxamide]",520,> 30,37.6
"Cc1ccc2c(c1)OC1CCCCC1C2NC(=O)c1ccc(C(F)(F)F)[nH]c1=O (stereo not drawn) [Compound 409, N-(6-methyl-2,3,4,4a,9,9a-hexahydro-1H-xanthen-9-yl)-2-oxo-6-(trifluoromethyl)-1,2-dihydropyridine-3-carboxamide]",40,> 30,29.7
"CCCc1cc(C(=O)NC2c3ccc(C)cc3Oc3cc(C)ccc32)c(=O)[nH]c1C(F)(F)F [Compound 521, N-(3,6-dimethyl-9H-xanthen-9-yl)-2-oxo-5-propyl-6-(trifluoromethyl)-1,2-dihydropyridine-3-carboxamide]",20,7.42,29.2
"Cc1ccc(C(NC(=O)c2ccc(C(F)(F)F)[nH]c2=O)C2CCCCC2)cc1 (stereo not drawn) [Compound 421, N-(cyclohexyl(p-tolyl)methyl)-2-oxo-6-(trifluoromethyl)-1,2-dihydropyridine-3-carboxamide]",360,25.1,11.3
